# Test results: US11236108B2, “Functionalized heterocycles as antiviral agents” (ENANTA PHARMACEUTICALS, INC., priority 2019, dated 2022)
# Columns and labels:
# hepatitis B virus (HBV) = assay: Reduction of viral product accumulation (HBV DNA qPCR, HBsAg or HBeAg ELISA) in 2.2.15 cells; type: cell-based; conditions: 120 h, day 5 post treatment, 50% reduction of viral product accumulation in cell lysates or supernatants relative to no drug controls, readout not specified
# Procedure: 2.2.15 cells are passaged upon attaining confluency in DMEM/F12 media in the presence of 10% FBS, Penn/Strep, and 250 ug/mL G418. Novel compounds are 5 fold serially diluted in DMSO and added to 96 well plates containing 35,000 cells/well at a 1:200 dilution so that the final concentration of DMSO is 0.5%. On day 5, post treatment cell lysates and supernatants are harvested for analysis.
# Cells are lysed using Agilent Sidestep Lysis buffer, diluted 1:100 and quantified via quantitative real time PCR. Commercially available ELISA kits are used to quantitate the viral proteins HBsAg (Alpco) or HBeAg (US Biological) by following the manufacturer's recommended protocol after diluting samples to match the linear range of their respective assays. Irrespective of readout, compound concentrations that reduce viral product accumulation in the cell lysates or supernatants by 50% relative to no drug controls (EC50) are reported; EC50 ranges are as follows: A<0.1 μM; B 0.1-1 μM; C>1 μM.
# [1] = Compound induced cellular toxicity in HepG2 cells (ATPlite 1 Step); type: cell-based; conditions: human, three days exposure, 50% reduction of total ATP levels relative to no drug controls
# Procedure: At day 3, post seeding cells are treated with ATPlite 1 Step according to the manufacturer's instructions.
SMILES,EC50 (hepatitis B virus (HBV)) [µM],CC50 at 3 days [1] [µM]
"CC(C)(C)[C@@H]1Oc2c(cc(Cl)c3occc23)-c2c1cc(C(=O)O)c(=O)n2C1CC1 [Example 2, (S)-5-(tert-butyl)-11-chloro-9-cyclopropyl-8-oxo-8,9-dihydro-5H-furo[2′,3′:7,8]chromeno[4,3-b]pyridine-7-carboxylic acid]",< 0.1,> 25
"CC(C)(C)[C@@H]1Oc2c(cc(O)c3occc23)-c2c1cc(C(=O)O)c(=O)n2C1CC1 [Example 5, (S)-5-(tert-butyl)-9-cyclopropyl-11-hydroxy-8-oxo-8,9-dihydro-5H-furo[2′,3′:7,8]chromeno[4,3-b]pyridine-7-carboxylic acid]",< 0.1,> 25
"COc1cc2c(c3ccoc13)O[C@@H](C(C)(C)C)c1cc(C(=O)O)c(=O)n(C3CC3)c1-2 [Example 6, (S)-5-(tert-butyl)-9-cyclopropyl-11-methoxy-8-oxo-8,9-dihydro-5H-furo[2′,3′:7,8]chromeno[4,3-b]pyridine-7-carboxylic acid]",< 0.1,> 25
"CC(C)(C)[C@@H]1Oc2c(cc(Cl)c3ccoc23)-c2c1cc(C(=O)O)c(=O)n2C1CC1 [Example 3, (S)-5-(tert-butyl)-11-chloro-9-cyclopropyl-8-oxo-8,9-dihydro-5H-furo[3′,2′:7,8]chromeno[4,3-b]pyridine-7-carboxylic acid]",< 0.1,> 25
"CC(C)(C)[C@@H]1Oc2c(ccc3occc23)-c2c1cc(C(=O)O)c(=O)n2C1CC1 [Example 4, (S)-5-(tert-butyl)-9-cyclopropyl-8-oxo-8,9-dihydro-5H-furo[2′,3′:7,8]chromeno[4,3-b]pyridine-7-carboxylic acid]",< 0.1,> 25
"CC(C)(C)[C@@H]1Oc2c(cc(Br)c3occc23)-c2c1cc(C(=O)O)c(=O)n2C1CC1 [Example 1, (S)-11-bromo-5-(tert-butyl)-9-cyclopropyl-8-oxo-8,9-dihydro-5H-furo[2′,3′:7,8]chromeno[4,3-b]pyridine-7-carboxylic acid]",< 0.1,> 25
